The results in this text go back to patent US20230159532A1, “PARATHYROID HORMONE (PTH) RECEPTOR ANTAGONISTS AND USES THEREOF” (Crinetics Pharmaceuticals, Inc., priority 2021, published 2023).

For orientation: Ki means a dissociation constant, usually derived from enzyme kinetics or from competition with a known ligand.

Some results are limits rather than exact numbers.

The target of the experiment is T1, human PTHR1 receptor (Homo sapiens, UniProt Q03431).
T1 construct: purchased Eurofins HTS030M
T1 sequence (Q03431 27-593): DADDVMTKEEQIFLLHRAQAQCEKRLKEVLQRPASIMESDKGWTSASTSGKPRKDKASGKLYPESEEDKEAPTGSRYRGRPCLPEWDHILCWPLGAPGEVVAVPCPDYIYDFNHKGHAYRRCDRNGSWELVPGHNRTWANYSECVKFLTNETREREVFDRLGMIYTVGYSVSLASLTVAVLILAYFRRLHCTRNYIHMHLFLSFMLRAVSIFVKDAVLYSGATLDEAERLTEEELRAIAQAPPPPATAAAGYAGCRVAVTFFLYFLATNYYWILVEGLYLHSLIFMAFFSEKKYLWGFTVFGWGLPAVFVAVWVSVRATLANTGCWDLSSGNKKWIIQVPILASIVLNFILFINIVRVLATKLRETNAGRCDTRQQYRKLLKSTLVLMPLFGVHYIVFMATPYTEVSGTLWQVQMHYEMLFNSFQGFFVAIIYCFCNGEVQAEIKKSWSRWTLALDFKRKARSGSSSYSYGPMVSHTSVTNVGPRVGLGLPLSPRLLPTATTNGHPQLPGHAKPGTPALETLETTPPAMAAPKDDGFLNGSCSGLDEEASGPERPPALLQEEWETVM
The experiment can be described thus: Competitive antagonist binding assay for hPTH-R1 (radioactive competition binding, SPA beads). Particulars: human PTHR1 membranes, [125I]-[Nle8,18,Tyr34]-PTH(1-34) 0.2 nM, 90 minutes at room temperature; read-out: hPTHR1 Ki. The essentials:
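Human PTHR1 membranes on SPA beads incubated 90 min at room temperature with compound (typically 0-10,000 nM final) and 0.2 nM [125I]-[Nle8,18,Tyr34]-PTH(1-34) in HEPES buffer with MgCl2, CaCl2, BSA, Triton X-100 and protease inhibitors, pH 7.4. Scintillation signal read; Ki values derived.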
For `CCN1C(=O)N(c2c(F)cc(NCCNCCO)cc2F)c2cc(Cl)cnc2-c2cc(Cl)cnc21` [3-21, 5,14-dichloro-8-[2,6-difluoro-4-({2-[(2-hydroxyethyl)amino]ethyl}amino)phenyl]-10-ethyl-3,8,10,12-tetraazatricyclo[9.4.0.0^2,7]pentadeca-1(11),2(7),3,5,12,14-hexaen-9-one], the Ki is less than 100 nM. As to `CCN1C(=O)N(c2c(F)cc(NCCNCCO)cc2F)c2cc(Cl)ccc2-c2cc(C#N)ncc21` [3-22, 13-chloro-10-[2,6-difluoro-4-({2-[(2-hydroxyethyl)amino]ethyl}amino)phenyl]-8-ethyl-9-oxo-5,8,10-triazatricyclo[9.4.0.0^2,7]pentadeca-1(11),2(7),3,5,12,14-hexaene-4-carbonitrile], the Ki is less than 100 nM. The same measure for `CCN1C(=O)N(c2c(F)cc(NCCNCCO)cc2F)c2cc(C#N)c(OC)cc2-c2cc(F)cnc21` [3-23, 10-[2,6-difluoro-4-({2-[(2-hydroxyethyl)amino]ethyl}amino)phenyl]-8-ethyl-4-fluoro-14-methoxy-9-oxo-6,8,10-triazatricyclo[9.4.0.0^2,7]pentadeca-1(11),2(7),3,5,12,14-hexaene-13-carbonitrile]: less than 100 nM. As to `CCN1C(=O)N(c2c(F)cc(NCCNC3CCOCC3)cc2F)c2cc(Cl)ccc2-c2cc(C#N)ncc21` [3-24, 13-chloro-10-[2,6-difluoro-4-({2-[(oxan-4-yl)amino]ethyl}amino)phenyl]-8-ethyl-9-oxo-5,8,10-triazatricyclo[9.4.0.0^2,7]pentadeca-1(11),2(7),3,5,12,14-hexaene-4-carbonitrile], the Ki was less than 100 nM. For `CCN1C(=O)N(c2c(F)cc(NCCNCCO)cc2F)c2cc(Cl)cnc2-c2cc(F)cnc21` [3-25, 5-chloro-8-[2,6-difluoro-4-({2-[(2-hydroxyethyl)amino]ethyl}amino)phenyl]-10-ethyl-14-fluoro-3,8,10,12-tetraazatricyclo[9.4.0.0^2,7]pentadeca-1(11),2(7),3,5,12,14-hexaen-9-one] the value was less than 100 nM.

“[2-({2-[(4-{13-cyano-8-ethyl-4-fluoro-9-oxo-6,8,10-triazatricyclo[9.4.0.0^2,7]pentadeca-1(11),2(7),3,5,12,14-hexaen-10-yl}-3,5-difluorophenyl)amino]ethyl}amino)ethyl]urea [1-169]”: the Ki was less than 100 nM.
